Like-named read-outs stand apart in the source and are kept apart here.
Tests used:
rat mesocaecum venules = details: local application; cited from earlier work
[1] = obliterative peripheral arterial disease; cited from earlier work
[2] = cited from earlier work
rat isolated heart = assay: Chronotropy and inotropy in Langendorff rat isolated heart
Description: Male Sprague-Dawley rats weighing 300-350 g (Charles River, Portage, Ind., USA) were anesthetized with 60 mg/kg pentobarbital sodium (Fort Dodge Laboratories, Inc., Fort Dodge, Iowa, USA) intraperitoneally. Following thoracotomy, the hearts were removed and placed into 4° C. […] Any associated lung and thymic tissue were trimmed off and the ascending aorta cannulated. The heart was then perfused at 10 ml/min with Krebs-Henseleit solution at 37° C. The perfusion pressure was constantly monitored. A small incision was made in the left atrium and a water-filled balloon (Hugo Sachs Electronik, March-Hugstetten, Germany) connected to a pressure transducer (Gould Electronics, Valley View, Ohio, USA) was placed into the left ventricle for the measurement of left ventricular developed pressure (LVDP). From this pressure, recording heart rate was electronically derived on a Grass polygraph (Quincy, Mass., USA).
In six experiments, after a 15-20 minutes stabilization period, the atria were removed. The heart rate was then allowed to stabilize at its new rate before the administration of relaxin. In three experiments, the atria were left intact.
Relaxin was administered as 50 μl bolus injections into the perfusion fluid immediately prior to entering the heart. Cumulative dose-response curves were constructed using human recombinant H2 relaxin (Genentech, Inc. South San Francisco, Calif., USA). […] Serial dilutions of both drugs were made using 0.9% (w/v) saline solution.
Statistical significance was determined by a two-tailed Student's unpaired t-test and P<0.005 was taken as significant.

[3] = system: relaxin receptors in the rat heart; assay: Effect of steroid hormones on relaxin receptors in the rat heart; type: in vivo; details: steroid treatment 10 μg s.c.; sacrificed 7 days later
Description: For hormonal control experiments, 10-11-week-old female rats were ovariectomized for two weeks and then injected s.c. with 10 μg estradiol cyclopentyl propionate in a […] vehicle or with vehicle alone. Likewise, 10-11-week-old male rats were castrated for 2 weeks and were injected with either 10 μg estradiol cyclopentyl propionate, 10 μg testosterone, or vehicle alone. The rats were sacrificed 7 days later by asphyxiation with CO2. The relevant tissues were removed rapidly and frozen in powdered dry ice immediately.
The frozen tissues were sectioned to 16 μm thickness using a Reichert-Jung Model 2800 Frigocut cryostat (Cambridge Instruments). Tissue sections were fixed onto gelatin/chromium potassium sulfate treated microscope slides by warming, and immediately refrozen and stored at -80° C. overnight or longer.
For binding of ^32 P-relaxin to the tissue sections, frozen slides were prewashed with binding buffer (Hank's balanced salt solution supplemented with 20 mMHEPES, pH 7.2, 1 mg/ml BSA, 0.1 mM PMSF, and 1 μg/ml leupeptin) at 4° C. for 1.5-2 hours. The tissue sections were then covered with 600-700 μl of 100 pM ^32 P-relaxin with or without excess unlabeled relaxin and other competing agents as specificity control, and incubated at 4° C. for one hour. The slides were washed 3 times for 15-30 minutes each, with binding buffer. […]

porcine relaxin
effect on venules and vasoconstriction (rat mesocaecum venules): dilate venules and antagonized the vasoconstrictive effects of norepinephrine and promethazine
healing of Raynaud's lesions [1]: beneficial in healing Raynaud's lesions
blood pressure ([2]; injection of up to 50 μg, anesthetized rats): did not affect blood pressure
arterial pressure ([2]; intracerebroventricular injection, urethane anesthetized rat): increase arterial pressure
arterial pressure ([2]; intravenous injection, urethane anesthetized rats): increases arterial pressure
heart rate ([2]; intravenous or intracerebroventricular injection, urethane anesthetized rat): increase heart rate

CNCC(O)c1ccc(O)c(O)c1.O=C(O)C(O)C(O)C(=O)O (centres unmarked) [adrenaline, Adrenaline bitartrate, reference compound]
transient increases in coronary perfusion pressure (rat isolated heart): 5-10 mmHg
left ventricular developed pressure (LVDP) (rat isolated heart; intact preparations, 4.5 pMol, basal 83±4 mmHg): 195±10 mmHg
duration of chronotropic effect (rat isolated heart; relaxin: single bolus administration of 830 pMol): short-lasting

C[C@]12CC[C@H]3[C@@H](CCC4=CC(=O)CC[C@@]43C)[C@@H]1CC[C@@H]2O [testosterone]
effect on relaxin binding in the heart [3]: did not cause any changes in relaxin binding in the heart

estradiol cyclopentyl propionate [Estrogen]
effect on relaxin binding in the heart [3]: had no effect on relaxin binding in the heart
